Data taken from patent publication US20230212222A1 (ANYGEN CO., LTD., priority 2020, published 2023).
Where two headings read alike, the source gives them in different places. Square brackets hold non-standard residues; d marks the D form. Peptide text beside a SMILES is read from it. * marks the point of attachment. Tyr(3,5-(NO2)2) = N[C@@H](Cc1cc([N+](=O)[O-])c(O)c([N+](=O)[O-])c1)C(=O)O; His(Trt) = N[C@@H](Cc1cn(C(c2ccccc2)(c2ccccc2)c2ccccc2)cn1)C(=O)O; His(τ-CHPh2) = N[C@@H](Cc1cn(C(c2ccccc2)c2ccccc2)cn1)C(=O)O; Tyr(3-NO2) = N[C@@H](Cc1ccc(O)c([N+](=O)[O-])c1)C(=O)O; Biotin = O=C1N[C@H]2[C@H](CS[C@H]2CCCCC(=O)*)N1; Tyr(3-Cl) = N[C@@H](Cc1ccc(O)c(Cl)c1)C(=O)O; dPhe(4-Me) = Cc1ccc(C[C@@H](N)C(=O)O)cc1; Dmt = Cc1cc(O)cc(C)c1C[C@H](N)C(=O)O; Octanoyl = CCCCCCCC(=O)*

What was measured:
GPR39 [1] = target: T1, GPR39 (Homo sapiens, UniProt O43194); assay: luciferase assay system (SRE luciferase reporter gene) for GPR39 in CV-1 cells; details: for ECmax (-fold induction over basal): CV-1 cells
T1 sequence (O43194 1-453): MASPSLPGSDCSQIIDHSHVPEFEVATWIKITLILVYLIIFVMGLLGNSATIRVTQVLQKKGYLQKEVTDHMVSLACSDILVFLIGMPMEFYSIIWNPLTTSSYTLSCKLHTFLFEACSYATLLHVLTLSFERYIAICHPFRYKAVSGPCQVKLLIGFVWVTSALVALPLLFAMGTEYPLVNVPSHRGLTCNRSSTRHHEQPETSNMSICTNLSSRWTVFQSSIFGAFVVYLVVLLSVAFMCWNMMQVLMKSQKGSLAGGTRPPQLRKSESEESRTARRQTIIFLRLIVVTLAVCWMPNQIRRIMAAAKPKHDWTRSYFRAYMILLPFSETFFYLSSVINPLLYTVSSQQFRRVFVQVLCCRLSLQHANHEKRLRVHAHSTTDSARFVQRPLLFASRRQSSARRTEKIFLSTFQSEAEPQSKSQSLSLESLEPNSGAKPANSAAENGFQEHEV
Description: (§1) Specifically, the fibroblast cell line CV-1 (1×10^5 cells/ml, Korea Cell Line Bank) was cultured in a 96 well cell culture plate for 24 hours, and then treated with GPR39 inserted into adenovirus and SRE (serum response element) luciferase at 50 MOI (multiplicity of infection) and 25 MOI virus for 3 hours, respectively, and then cultured for 24 hours.

GPR39 [2] = target: T1, GPR39
Description: as §1

[3] = GPR39 and SRE luciferase adenovirus, treated 6 hours, luminometer
[4] = EC50, CV-1 cells, GPR39 and SRE luciferase adenovirus, treated 6 hours, luminometer

Compound | ECmax (-fold induction over basal) (GPR39 [2]) | ECmax (-fold induction over basal) (GPR39 [1]; [3]) | further results
CCCCCCCC(=O)NCCCC[C@H](NC(=O)[C@@H](N)Cc1c[n+](CCCc2ccccc2)cn1CCCc1ccccc1)C(=O)N[C@@H](Cc1ccccc1)C(=O)N[C@@H](Cc1ccc(O)cc1)C(=O)O |  | 15 ± 2.12 -fold induction over basal | 
CCCCCCCC(=O)NCCCC[C@H](NC(=O)[C@@H](N)Cc1cncn1CCCC1CCCCC1)C(=O)N[C@@H](Cc1ccccc1)C(=O)N[C@@H](Cc1ccc(O)cc1)C(=O)O |  | 16 ± 2.2 -fold induction over basal | 
CCCCCCCC(=O)NCCCC[C@H](NC(=O)[C@@H](N)Cc1c[n+](CCCC2CCCCC2)cn1CCCC1CCCCC1)C(=O)N[C@@H](Cc1ccccc1)C(=O)N[C@@H](Cc1ccc(O)cc1)C(=O)O |  | 17.3 ± 1.22 -fold induction over basal | EC50 (GPR39 [1]): 33700 ± 1300 nM
CCCCCCCC(=O)NCCCC[C@H](NC(=O)[C@@H](N)Cc1cn(C(c2ccccc2)(c2ccccc2)c2ccccc2)cn1)C(=O)N[C@@H](Cc1ccccc1)C(=O)N[C@@H](Cc1ccc(O)cc1)C(=O)O [HKFY-1, N6-octanoyl-N2-(Nt-trityl-L-histidyl)-L-lysyl-L-phenylalanyl-L-tyrosine] (H-[His(Trt)]K(Octanoyl)FY-OH) | 20.51 ± 0.57 -fold induction over basal |  | EC50 (GPR39 [1]; [4]): 150 ± 10 nM
CCCCCCCC(=O)NCCCC[C@H](NC(=O)[C@H](Cc1cn(C(c2ccccc2)(c2ccccc2)c2ccccc2)cn1)NC(=O)CCCC[C@@H]1SC[C@@H]2NC(=O)N[C@@H]21)C(=O)N[C@@H](Cc1ccccc1)C(=O)N[C@@H](Cc1ccc(O)cc1)C(=O)O [HKFY-2, N6-octanoyl-N2-(Na-(5-((3aS,4S,6aR)-2-oxohexahydro-1H-thieno[3,4-d]imidazol-4-yl)pentanoyl)-Nt-trityl-L-histidyl)-L-lysyl-L-phenylalanyl-L-tyrosine] (Biotin-[His(Trt)]K(Octanoyl)FY-OH) | 15 ± 1.87 -fold induction over basal |  | EC50 (GPR39 [1]; [4]): 140 ± 70 nM
CCCCCCCC(=O)NCCCC[C@H](NC(=O)[C@@H](N)Cc1cn(C(c2ccccc2)c2ccccc2)cn1)C(=O)N[C@H](Cc1ccc(C)cc1)C(=O)N[C@@H](Cc1c(C)cc(O)cc1C)C(=O)O [HKFY-36, (S)-2-((R)-2-((S)-2-((S)-2-amino-3-(1-benzhydryl-1H-imidazol-4-yl)propanamido)-6-octanamidohexanamido)-3-(p-tolyl)propanamido)-3-(4-hydroxy-2,6-dimethylphenyl)propanoic acid] (H-[His(τ-CHPh2)]K(Octanoyl)[dPhe(4-Me)][Dmt]-OH) |  | 9.9 ± 0.28 -fold induction over basal | EC50 (GPR39 [1]): 150 ± 50 nM
CCCCCCCC(=O)NCCCC[C@H](NC(=O)[C@@H](N)Cc1cn(C(c2ccccc2)(c2ccccc2)c2ccccc2)cn1)C(=O)N[C@@H](Cc1ccccc1)C(=O)N[C@@H](Cc1ccc(O)cc1)C(=O)N[C@@H](CO)C(=O)N[C@@H](CCC(N)=O)C(=O)N[C@@H](CC(=O)O)C(=O)NCC(=O)N[C@@H](C)C(=O)N[C@@H](CCCNC(=N)N)C(=O)N[C@@H](Cc1ccccc1)C(N)=O [HKFY-41, (3S,6S,9S,12S,15S,18S)-3-((2-(((S)-1-(((S)-1-(((S)-1-amino-1-oxo-3-phenylpropan-2-yl)amino)-5-guanidino-1-oxopentan-2-yl)amino)-1-oxopropan-2-yl)amino)-2-oxoethyl)carbamoyl)-18-((S)-2-amino-3-(1-trityl-1H-imidazol-4-yl)propanamido)-6-(3-amino-3-oxopropyl)-15-benzyl-12-(4-hydroxybenzyl)-9-(hydroxymethyl)-5,8,11,14,17,24-hexaoxo-4,7,10,13,16,23-hexaazahentriacontanoic acid] (H-[His(Trt)]K(Octanoyl)FYSQDGARF-NH2) |  | 12.2 ± 0.02 -fold induction over basal | 
CCCCCCCC(=O)NCCCC[C@H](NC(=O)[C@H](CO)NC(=O)CNC(=O)[C@@H](N)Cc1cn(C(c2ccccc2)(c2ccccc2)c2ccccc2)cn1)C(=O)N[C@@H](Cc1ccccc1)C(=O)N[C@@H](Cc1ccc(O)cc1)C(=O)O [HKFY-53, N6-octanoyl-N2-(Nt-trityl-L-histidylglycyl-L-seryl)-L-lysyl-L-phenylalanyl-L-tyrosine] (H-[His(Trt)]GSK(Octanoyl)FY-OH) | 8 ± 2.12 -fold induction over basal |  | 
CCCCCCCC(=O)NCCCC[C@H](NC(=O)[C@@H](N)Cc1cn(C(c2ccccc2)c2ccccc2)cn1)C(=O)N[C@H](Cc1ccc(C)cc1)C(=O)N[C@@H](Cc1cc([N+](=O)[O-])c(O)c([N+](=O)[O-])c1)C(=O)O [HKFY-69, (S)-2-((R)-2-((S)-2-((S)-2-amino-3-(1-benzhydryl-1H-imidazol-4-yl)propanamido)-6-octanamidohexanamido)-3-(p-tolyl)propanamido)-3-(4-hydroxy-3,5-dinitrophenyl)propanoic acid] (H-[His(τ-CHPh2)]K(Octanoyl)[dPhe(4-Me)][Tyr(3,5-(NO2)2)]-OH) |  | 12.2 ± 2.5 -fold induction over basal | 

Second part, led by results:

ECmax (-fold induction over basal) (GPR39 [2]) | Compound | ECmax (-fold induction over basal) (GPR39 [1]; [3]) | further results
7.8 ± 2.5 -fold induction over basal | CCCCCCCC(=O)NCCCC[C@H](N)C(=O)N[C@@H](Cc1ccccc1)C(=O)N[C@@H](Cc1ccc(O)cc1)C(=O)O [HKFY-54, N6-octanoyl-L-lysyl-L-phenylalanyl-L-tyrosine] (H-Lys(Octanoyl)-Phe-Tyr-OH) |  | 
16.8 ± 2.5 -fold induction over basal | CCCCCCCC(=O)NCCCC[C@H](N)C(=O)N[C@@H](Cc1cn(C(c2ccccc2)(c2ccccc2)c2ccccc2)cn1)C(=O)N[C@@H](Cc1ccccc1)C(=O)N[C@@H](Cc1ccc(O)cc1)C(=O)O [HKFY-55, Na-(N6-octanoyl-L-lysyl)-Nt-trityl-L-histidyl-L-phenylalanyl-L-tyrosine] (H-K(Octanoyl)[His(Trt)]FY-OH) |  | 
6.76 ± 2.2 -fold induction over basal | CCCCCCCC(=O)NCCCC[C@H](NC(=O)[C@@H](N)Cc1cn(-c2ccccc2)c(-c2ccccc2)n1)C(=O)N[C@H](Cc1ccc(C)cc1)C(=O)N[C@@H](Cc1ccc(O)cc1)C(=O)O [HKFY-59, ((R)-2-((S)-2-((S)-2-amino-3-(1,2-diphenyl-1H-imidazol-4-yl)propanamido)-6-octanamidohexanamido)-3-(p-tolyl)propanoyl)-L-tyrosine] |  | 
28.2 ± 2.5 -fold induction over basal | CCCCCCCC(=O)NCCCC[C@H](NC(=O)[C@@H](N)Cc1c[nH]c(-c2ccc(C(C)(C)C)cc2)n1)C(=O)N[C@H](Cc1ccc(C)cc1)C(=O)N[C@@H](Cc1ccc(O)cc1)C(=O)O [HKFY-60, ((R)-2-((S)-2-((S)-2-amino-3-(2-(4-(tert-butyl)phenyl)-1H-imidazol-4-yl)propanamido)-6-octanamidohexanamido)-3-(p-tolyl)propanoyl)-L-tyrosine] |  | 
28.1 ± 2.1 -fold induction over basal | CCCCCCCC(=O)NCCCC[C@H](NC(=O)[C@H](N)Cc1cn(C(c2ccccc2)c2ccccc2)cn1)C(=O)N[C@H](Cc1ccc(C)cc1)C(=O)N[C@@H](Cc1ccc(O)cc1)C(=O)O [HKFY-62, ((R)-2-((S)-2-((R)-2-amino-3-(1-benzhydryl-1H-imidazol-4-yl)propanamido)-6-octanamidohexanamido)-3-(p-tolyl)propanoyl)-L-tyrosine] |  | 
10.2 ± 1.51 -fold induction over basal | CCCCCCCC(=O)NCCCC[C@H](NC(=O)[C@@H](N)Cc1cn(C(c2ccccc2)c2ccccc2)cn1)C(=O)N[C@H](Cc1ccc(C)cc1)C(=O)N[C@@H](Cc1ccc(O)c(Cl)c1)C(=O)O [HKFY-67, (S)-2-((R)-2-((S)-2-((S)-2-amino-3-(1-benzhydryl-1H-imidazol-4-yl)propanamido)-6-octanamidohexanamido)-3-(p-tolyl)propanamido)-3-(3-chloro-4-hydroxyphenyl)propanoic acid] (H-[His(τ-CHPh2)]K(Octanoyl)[dPhe(4-Me)][Tyr(3-Cl)]-OH) |  | 
10.8 ± 1.41 -fold induction over basal | CCCCCCCC(=O)NCCCC[C@H](NC(=O)[C@@H](N)Cc1cn(C(c2ccccc2)c2ccccc2)cn1)C(=O)N[C@H](Cc1ccc(C)cc1)C(=O)N[C@@H](Cc1ccc(O)c([N+](=O)[O-])c1)C(=O)O [HKFY-68, (S)-2-((R)-2-((S)-2-((S)-2-amino-3-(1-benzhydryl-1H-imidazol-4-yl)propanamido)-6-octanamidohexanamido)-3-(p-tolyl)propanamido)-3-(4-hydroxy-3-nitrophenyl)propanoic acid] (H-[His(τ-CHPh2)]K(Octanoyl)[dPhe(4-Me)][Tyr(3-NO2)]-OH) |  | 
15.9 ± 4.12 -fold induction over basal | CCCCCCCC(=O)NCCCC[C@H](NC(=O)[C@@H](N)Cc1cn(S(=O)(=O)c2ccc(C)cc2)cn1)C(=O)N[C@H](Cc1ccc(C)cc1)C(=O)N[C@@H](Cc1ccc(O)cc1)C(=O)O [HKFY-75, ((R)-2-((S)-2-((S)-2-amino-3-(1-tosyl-1H-imidazol-4-yl)propanamido)-6-octanamidohexanamido)-3-(p-tolyl)propanoyl)-L-tyrosine] |  | 
11.2 ± 1.4 -fold induction over basal | CCCCCCCC(=O)NCCCC[C@H](NC(=O)[C@@H](N)Cc1cn(C(c2ccccc2)c2ccccc2)cn1)C(=O)O [HKFY-79, N2-(Nt-benzhydryl-L-histidyl)-N6-octanoyl-L-lysine] |  | 
